Source: publication PMC2797259 (The Journal of Biological Chemistry, 2009)

Biological target: T1, BacA (Bacillus subtilis, UniProt P39638)
T1 sequence (P39638 1-204): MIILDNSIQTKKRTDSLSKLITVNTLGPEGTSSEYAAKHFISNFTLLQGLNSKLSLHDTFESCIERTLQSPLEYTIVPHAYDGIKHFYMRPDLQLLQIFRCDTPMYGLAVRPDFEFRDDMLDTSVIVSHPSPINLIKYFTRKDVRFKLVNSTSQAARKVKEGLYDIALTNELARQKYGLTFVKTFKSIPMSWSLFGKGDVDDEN
Test: HPLC, UV, 1H NMR and ESI-MS of products
Assay type: biochemical
Settings: decarboxylation; Tris-HCl pH 8.1

## O=C(O)C(=O)CC1(C(=O)O)C=CC(O)C=C1 (stereo not shown) [prephenate]
  HPLC, UV, 1H NMR and ESI-MS of products: prephenate is a substrate for BacA and not for BacB
